Measurements as given in patent publication US20250002471A1 (Gilead Sciences, Inc., priority 2020, published 2025).

Columns and labels:
[1] = biological target: T1, TLR8 (Homo sapiens, UniProt Q9NR97); assay: TLR8 human PBMC cell-based assay, TLR8 agonist Compound A stimulation, cytokine (TNFa and IL12p40) readout; conditions: human PBMCs, Compound A 800 nM, 6 hours; Table 26; read-out: TLR-8 EC50
T1 construct: lymphocytes, monocytes and dendritic cells that express TLR7, TLR8 and TLR9; endogenous in cells; host or cells: human PBMCs from healthy donors
T1 sequence (Q9NR97 27-1041): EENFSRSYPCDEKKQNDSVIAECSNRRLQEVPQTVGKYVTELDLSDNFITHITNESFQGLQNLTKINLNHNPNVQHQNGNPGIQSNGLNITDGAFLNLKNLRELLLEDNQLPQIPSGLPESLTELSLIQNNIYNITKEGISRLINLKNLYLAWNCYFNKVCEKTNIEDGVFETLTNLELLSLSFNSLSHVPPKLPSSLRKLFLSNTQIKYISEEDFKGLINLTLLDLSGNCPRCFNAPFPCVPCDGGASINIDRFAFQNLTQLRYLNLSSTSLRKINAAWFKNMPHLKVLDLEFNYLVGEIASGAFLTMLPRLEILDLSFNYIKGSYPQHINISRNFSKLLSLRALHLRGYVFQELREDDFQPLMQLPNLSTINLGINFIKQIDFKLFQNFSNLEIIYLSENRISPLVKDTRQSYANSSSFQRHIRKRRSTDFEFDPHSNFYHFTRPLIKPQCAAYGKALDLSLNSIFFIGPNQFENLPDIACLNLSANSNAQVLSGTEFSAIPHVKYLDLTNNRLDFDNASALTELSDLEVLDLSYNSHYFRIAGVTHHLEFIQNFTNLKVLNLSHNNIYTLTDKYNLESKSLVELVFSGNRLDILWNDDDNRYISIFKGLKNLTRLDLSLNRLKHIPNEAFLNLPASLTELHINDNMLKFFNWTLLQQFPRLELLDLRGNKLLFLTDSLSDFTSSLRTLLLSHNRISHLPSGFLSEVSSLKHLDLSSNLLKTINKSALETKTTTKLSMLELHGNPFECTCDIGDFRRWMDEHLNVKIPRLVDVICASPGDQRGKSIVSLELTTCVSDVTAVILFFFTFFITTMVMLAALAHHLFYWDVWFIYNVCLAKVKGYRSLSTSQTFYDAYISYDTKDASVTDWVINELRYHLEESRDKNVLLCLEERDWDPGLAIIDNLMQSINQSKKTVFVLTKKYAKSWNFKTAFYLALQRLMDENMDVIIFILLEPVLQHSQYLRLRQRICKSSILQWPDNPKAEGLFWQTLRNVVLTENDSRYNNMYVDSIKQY
Protocol: Cryopreserved human PBMCs from healthy donors were thawed and resuspended in RPMI-1640 media with L-glutamine (Corning) supplemented with 10% Fetal Bovine Serum (Hyclone) and 1X Penicillin-Streptomycin (Corning). After counting, the cell density was adjusted to 2 million cells/ml and incubated for 1 hour at 37° C., 5% CO2 for recovery. Following the recovery, the cells were plated by adding 50p per well (100,000 cells) to 384-well cell culture plates (Greiner) containing 250nl of test antagonists in 100% DMSO per well, in a 10 points dose response in quadruplicates. PBMCs were incubated in the presence of antagonists for one hour at 37° C., 5% CO2 before being stimulated with TLR8 agonist. Compound A (Gilead Sciences, U.S. Pat. No. 10,285,990) was used as the TLR8 agonist at a final concentration of 800 nM. PBMCs were incubated in the presence of antagonist and the TLR8 agonist for an additional 6 hours at 37° C., […]. At the end of the incubation, the cell culture plates were centrifuged at 500 g for 5 min, and the cell culture supernatant was collected. The level of cytokines (TNFa and IL12p40) in the supernatant was measured by electrochemiluminescence immunoassays (Mesoscale Discovery) following manufacturer's recommended protocols. The level of cytokine measured was plotted against the antagonist concentration and fitted to a sigmoidal function to determine the EC50, which are shown below in Table 11.

[2] = biological target: T2, TLR7 (Homo sapiens, UniProt Q9NYK1); assay: Human PBMC cell-based assay, TLR7 agonist GS-986 stimulation, cytokine (IL-6 and IFNα) readout; conditions: human PBMCs, GS-986 400 nM, 6 hours; Table 26; read-out: TLR-7 EC50
T2 construct: lymphocytes, monocytes and dendritic cells that express TLR7, TLR8 and TLR9; endogenous in cells; host or cells: human PBMCs from healthy donors
T2 sequence (Q9NYK1 27-1049): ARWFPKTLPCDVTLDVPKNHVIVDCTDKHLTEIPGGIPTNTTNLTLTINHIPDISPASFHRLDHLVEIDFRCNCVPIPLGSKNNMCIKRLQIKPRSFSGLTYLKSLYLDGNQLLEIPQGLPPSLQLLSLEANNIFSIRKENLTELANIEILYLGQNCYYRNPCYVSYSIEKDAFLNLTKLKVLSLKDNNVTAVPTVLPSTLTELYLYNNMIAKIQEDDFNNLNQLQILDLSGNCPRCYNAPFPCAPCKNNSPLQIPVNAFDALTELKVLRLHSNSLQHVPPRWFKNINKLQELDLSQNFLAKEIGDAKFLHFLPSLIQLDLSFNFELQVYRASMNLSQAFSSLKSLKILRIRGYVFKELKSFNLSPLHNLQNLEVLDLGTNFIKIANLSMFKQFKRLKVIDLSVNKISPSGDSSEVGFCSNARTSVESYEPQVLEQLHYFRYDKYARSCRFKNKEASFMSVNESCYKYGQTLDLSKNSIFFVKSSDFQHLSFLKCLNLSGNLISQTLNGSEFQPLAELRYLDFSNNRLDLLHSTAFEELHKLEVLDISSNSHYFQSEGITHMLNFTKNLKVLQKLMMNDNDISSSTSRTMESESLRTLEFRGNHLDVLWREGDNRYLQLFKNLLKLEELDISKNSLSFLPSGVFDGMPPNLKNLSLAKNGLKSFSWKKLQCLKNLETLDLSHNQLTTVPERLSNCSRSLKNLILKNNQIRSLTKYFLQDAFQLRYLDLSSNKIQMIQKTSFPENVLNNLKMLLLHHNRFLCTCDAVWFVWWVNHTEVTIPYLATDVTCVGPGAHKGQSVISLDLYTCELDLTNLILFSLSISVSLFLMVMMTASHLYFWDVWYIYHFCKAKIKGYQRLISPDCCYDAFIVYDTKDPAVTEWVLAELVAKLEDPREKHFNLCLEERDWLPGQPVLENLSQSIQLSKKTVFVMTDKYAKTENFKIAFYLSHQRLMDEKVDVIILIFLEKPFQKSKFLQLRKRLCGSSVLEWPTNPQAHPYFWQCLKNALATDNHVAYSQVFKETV
In short: (§1)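 Cryopreserved healthy-donor PBMCs (100,000 cells/well, RPMI-1640 + 10% FBS) preincubated 1 h at 37 °C with antagonist (10-point dose response), then stimulated 6 h with GS-986 (400 nM final, TLR7) or ODN-2216 (3 μM final, TLR9). Supernatant IL-6 and IFNα measured by electrochemiluminescence immunoassay; EC50 from sigmoidal fit.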

[3] = biological target: T3, TLR9 (Homo sapiens, UniProt Q9NR96); assay: Human PBMC cell-based assay, TLR9 agonist ODN-2216 stimulation, cytokine (IL-6 and IFNα) readout; conditions: human PBMCs, ODN-2216 3 μM, 6 hours; Table 26; read-out: TLR-9 EC50
T3 construct: lymphocytes, monocytes and dendritic cells that express TLR7, TLR8 and TLR9; endogenous in cells; host or cells: human PBMCs from healthy donors
T3 sequence (Q9NR96 26-1032): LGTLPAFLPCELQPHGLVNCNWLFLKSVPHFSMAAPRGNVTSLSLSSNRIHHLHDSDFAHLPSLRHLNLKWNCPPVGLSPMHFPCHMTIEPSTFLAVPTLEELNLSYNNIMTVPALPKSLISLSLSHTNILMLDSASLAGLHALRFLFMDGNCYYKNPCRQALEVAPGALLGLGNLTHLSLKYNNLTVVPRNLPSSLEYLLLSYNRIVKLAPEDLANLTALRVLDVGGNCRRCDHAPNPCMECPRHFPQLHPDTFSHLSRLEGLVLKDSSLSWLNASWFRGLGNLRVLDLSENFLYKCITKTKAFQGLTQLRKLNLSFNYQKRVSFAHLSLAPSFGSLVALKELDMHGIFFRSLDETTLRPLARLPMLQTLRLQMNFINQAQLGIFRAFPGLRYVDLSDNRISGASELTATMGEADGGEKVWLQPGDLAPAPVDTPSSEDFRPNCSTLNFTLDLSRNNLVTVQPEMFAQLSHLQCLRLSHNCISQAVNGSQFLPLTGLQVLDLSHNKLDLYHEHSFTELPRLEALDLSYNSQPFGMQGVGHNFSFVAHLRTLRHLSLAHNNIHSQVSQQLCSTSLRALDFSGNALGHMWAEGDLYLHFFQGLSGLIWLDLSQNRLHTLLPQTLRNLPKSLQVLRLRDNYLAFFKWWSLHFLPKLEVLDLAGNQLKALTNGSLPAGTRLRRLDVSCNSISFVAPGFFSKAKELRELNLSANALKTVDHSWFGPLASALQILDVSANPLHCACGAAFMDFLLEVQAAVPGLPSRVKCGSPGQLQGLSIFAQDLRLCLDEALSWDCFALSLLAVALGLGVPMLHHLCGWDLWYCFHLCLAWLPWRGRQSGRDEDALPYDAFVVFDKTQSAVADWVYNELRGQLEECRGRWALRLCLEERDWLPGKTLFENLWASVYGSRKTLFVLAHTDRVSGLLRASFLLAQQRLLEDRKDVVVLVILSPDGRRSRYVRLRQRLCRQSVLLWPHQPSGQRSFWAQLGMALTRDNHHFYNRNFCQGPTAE
In short: as §1

EC50 [1]	EC50 [2]	EC50 [3]	Structure (SMILES)
5.16 nM	0.11 nM		CCc1c(-c2cc(C)c3ncnn3c2)[nH]c2cc(-c3ccc(N4CCN(CCO)CC4)nc3)ccc12 [Example 173]
3.33 nM	0.12 nM		CCc1c(-c2cc(OC)c3ncnn3c2)[nH]c2cc(-c3ccc(N4CCN(C(=O)C56CC(CN5)C6)CC4)nc3)ccc12 [Example 174]
8.15 nM	0.15 nM		Cc1cc(-c2[nH]c3cc(-c4ccc(N5CCNCC5)nc4)ccc3c2C2CC2)cn2ncnc12 [Example 175]
	> 1000 nM	1880 nM	Cc1cc(-c2[nH]c3cc(C(=O)NC4CCNCC4)ccc3c2C)cc(C)n1 [Example 178, 2-(2,6-dimethylpyridin-4-yl)-3-methyl-N-(piperidin-4-yl)-1H-indole-6-carboxamide]
	334 nM	211 nM	Cc1cc(-c2[nH]c3cc(C(=O)N[C@H]4CCCNC4)ccc3c2C)cc(C)n1 [Example 179]
	> 1000 nM	835 nM	Cc1cc(-c2[nH]c3cc(C(=O)N4CCC5(CCNCC5)CC4)ccc3c2C)cc(C)n1 [Example 180]
	48.3 nM	35.2 nM	Cc1cc(-c2[nH]c3cc(-c4cnc5c(c4)CCNC5)ccc3c2C)cc(C)n1 [Example 181, 3-[2-(2,6-dimethyl-4-pyridyl)-3-methyl-1H-indol-6-yl]-5,6,7,8-tetrahydro-1,7-naphthyridine]
	59.6 nM	47.1 nM	Cc1cc(-c2[nH]c3cc(-c4ccc5c(n4)CCNC5)ccc3c2C)cc(C)n1 [Example 182]
	323 nM	785 nM	Cc1cc(-c2[nH]c3cc(-c4cnn(CC5CCNCC5)c4)ccc3c2C)cc(C)n1 [Example 183]
	16.9 nM	268 nM	Cc1cc(-c2[nH]c3cc(-c4cnn(C5CC6CCC(C5)N6)c4)ccc3c2C)cc(C)n1 (stereo not drawn) [Example 184]
	37.4 nM	54.3 nM	Cc1cc(-c2[nH]c3cc(-c4nc(N5CCNCC5)cs4)ccc3c2C)cc(C)n1 [Example 185, 2-(2-(2,6-dimethylpyridin-4-yl)-3-methyl-1H-indol-6-yl)-4-(piperazin-1-yl)thiazole]
	121 nM	225 nM	Cc1cc(-c2[nH]c3cc(-c4nc(C5CCNCC5)cs4)ccc3c2C)cc(C)n1 [Example 186, 2-(2-(2,6-dimethylpyridin-4-yl)-3-methyl-1H-indol-6-yl)-4-(piperidin-4-yl)thiazole]
	171 nM	469 nM	Cc1cc(-c2[nH]c3cc(-c4ccc5c(c4)[nH]c(=O)n5C4CCNCC4)ccc3c2C)cc(C)n1 [Example 187, 6-[2-(2,6-dimethyl-4-pyridyl)-3-methyl-1H-indol-6-yl]-3-(4-piperidyl)-1H-benzimidazol-2-one]
	270 nM	175 nM	Cc1cc(-c2[nH]c3cc(-c4nc(N5CCNCC5)no4)ccc3c2C)cc(C)n1 [Example 188, 5-[2-(2,6-dimethyl-4-pyridyl)-3-methyl-1H-indol-6-yl]-3-piperazin-1-yl-1,2,4-oxadiazole]
	108 nM	217 nM	Cc1cc(-c2[nH]c3cc(-c4nc(C5CCNCC5)no4)ccc3c2C)cc(C)n1 [Example 189]
	16 nM	55 nM	Cc1cc(-c2[nH]c3cc(-c4nnc(C5CCNCC5)o4)ccc3c2C)cc(C)n1 [Example 190, 2-[2-(2,6-dimethyl-4-pyridyl)-3-methyl-1H-indol-6-yl]-5-(4-piperidyl)-1,3,4-oxadiazole]
269 nM	49.1 nM		Cc1c(-c2cc(C)c3ncnn3c2)[nH]c2cc(-c3nnc(C4CCNCC4)o3)ccc12 [Example 191]
403 nM	65.6 nM		Cc1c(-c2cc(C)c3ncnn3c2)[nH]c2cc(-c3nnc(N4CCNCC4)o3)ccc12 [Example 192]
